Structures are written as SMILES. Where a SMILES comes first, the peptide text is derived from it. Some results are limits rather than exact numbers.

For test [1], the species on record is Rattus norvegicus. In words: Tested for agonist activity in rat uterus with respect to human angiotensin II. The test is classed as functional.
The species named for test [2] is Rattus norvegicus. Put plainly: Tested for antagonist activity in rat uterus with respect to human angiotensin II as reference. It counts as functional. The following applies: read-out: pA2 (converted).

`CC[C@H](C)[C@@H]1NC(=O)[C@H](Cc2ccc(O)cc2)NC(=O)[C@H](Cc2ccccc2)NC(=O)[C@@H]2CCCN2C(=O)[C@H](Cc2c[nH]cn2)NC1=O` (cyclo(FYIHP)) [listing 1 of 2 here] returned an Agonist activity in test [1] below 0.1%.
For `CC[C@H](C)[C@@H]1NC(=O)[C@H](Cc2ccc(O)cc2)NC(=O)[C@H](Cc2ccccc2)NC(=O)[C@@H]2CCCN2C(=O)[C@H](Cc2c[nH]cn2)NC1=O` (cyclo(FYIHP)) [listing 2 of 2 here], the Kb in test [2] was above 10 µM.

For the origin of these results see ChEMBL document CHEMBL1127853, “Novel synthesis of cyclic amide-linked analogues of angiotensins II and III” (J Med Chem, 1994).
